The nature of series [1]: Compound solubility in water.
A further series concerns the target T1, acid ceramidase (Homo sapiens, UniProt Q13510).
T1 construct: Cell lysates overexpressing acid ceramidase were used as the enzyme source; expressed in transfected cells
T1 sequence (Q13510 22-395): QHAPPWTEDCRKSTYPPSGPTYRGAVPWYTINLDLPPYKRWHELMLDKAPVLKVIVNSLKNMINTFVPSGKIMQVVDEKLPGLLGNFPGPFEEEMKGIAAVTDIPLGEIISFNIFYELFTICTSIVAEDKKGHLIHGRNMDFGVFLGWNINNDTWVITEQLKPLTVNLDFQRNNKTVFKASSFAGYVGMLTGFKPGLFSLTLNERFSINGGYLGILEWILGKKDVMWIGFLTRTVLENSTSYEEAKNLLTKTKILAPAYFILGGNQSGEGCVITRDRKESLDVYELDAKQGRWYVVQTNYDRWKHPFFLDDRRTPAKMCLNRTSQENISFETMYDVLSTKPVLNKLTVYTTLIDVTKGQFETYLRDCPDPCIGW
The series is described as follows: Acid ceramidase inhibition, biochemical fluorescent assay with cell lysates overexpressing acid ceramidase, substrate Rbm14-12. The note with it: substrate Rbm14-12 6.3 μM. The method, boiled down: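 Lysate of cells overexpressing acid ceramidase (10 μg protein) preincubated with compound dose series 1 hr at RT in 25 mM NaAC, 100 mM NaCl, pH 4.5, then reacted 1 hr with 6.3 μM Rbm14-12. Stopped with NaIO4/glycine buffer pH 10.6, fluorescence ex360/em446; IC50 by four-parameter fit.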

Setting [2] is: pH 4.5, 1 hr preincubation at RT.

The text below walks through data of patent US20220380319A1 (Bial - R&D Investments, S.A., priority 2019, published 2022).

In brackets after ≈: the same amount, converted by molar mass.

The compound `CC(C)CCNC(=O)n1cnc2c(N3CCN(C)CC3)cccc21` [Example 119, N-iso-Pentyl-4-(4-methylpiperazin-1-yl)-1H-benzo[d]imidazole-1-carboxamide] returned a solubility in series [1] of 0.023 mg/mL (≈ 69.8 µM). Besides, the IC50 on acid ceramidase (setting [2]) fell in the range of 0.2 to 1 µM.
Compound `CNC1CCN(c2cccc3c2ncn3C(=O)NCC#CC(C)C)C1` (centres unmarked) [Example 300, 4-(3-(Methylamino)pyrrolidin-1-yl)-N-(4-methylpent-2-ynyl)-1H-benzo[d]imidazole-1-carboxamide] came in with a solubility in series [1] of 0.029 mg/mL (≈ 85.4 µM). On acid ceramidase (pH 4.5), this compound showed an IC50 of less than 0.2 µM.
The compound `CN1CCN(c2cccc3c2ncn3C(=O)NCC2Oc3ccccc3O2)CC1` [Example 345, N-(Benzo[d][1,3]dioxol-2-ylmethyl)-4-(4-methylpiperazin-1-yl)-1H-benzo[d]imidazole-1-carboxamide] showed a solubility in series [1] of 0.04 mg/mL (≈ 102 µM). Besides, the IC50 on acid ceramidase (setting [2]) is less than 0.2 µM.
Consider `O=C(NCCCC1CC1)n1cnc2c(N3CCOCC3)cccc21` [Example 141, N-(3-Cyclopropylpropyl)-4-morpholino-1H-benzo[d]imidazole-1-carboxamide], for which the concentration in solution in series [1] (solubility) was 0.015 mg/mL (≈ 45.7 µM). For the same compound, the concentration for half-maximal inhibition (IC50) at acid ceramidase (setting [2]) was less than 0.2 µM.
In the case of `COc1nc2cc(N3CCOCC3)ccc2n1C(=O)NCC1CC1Cc1ccccc1` (centres unmarked) [Example 231b, N-((2-benzylcyclopropyl)methyl)-2-methoxy-5-morpholino-1H-benzo[d]imidazole-1-carboxamide], the concentration in solution in series [1] (solubility) came to 0.013 mg/mL (≈ 30.9 µM). This compound displayed a half-maximal inhibitory concentration (IC50) against acid ceramidase (pH 4.5) of less than 0.2 µM.
For the compound `CN1CCC(c2cccc3c2ncn3C(=O)NCCCc2ccccc2)CC1` [Example 44, 4-(1-Methylpiperidin-4-yl)-N-(3-phenylpropyl)-1H-benzo[d]imidazole-1-carboxamide], in series [1], the solubility is 0.0232 mg/mL (≈ 61.6 µM). Moreover, the IC50 on acid ceramidase (setting [2]) was less than 0.2 µM.
As for `CC(C)CCNC(=O)n1cnc2ccc(-c3cncnc3)cc21` [Example 103a, N-iso-Pentyl-6-(pyrimidin-5-yl)-1H-benzo[d]imidazole-1-carboxamide], in series [1], the concentration in solution (solubility) came to 0.0143 mg/mL (≈ 46.2 µM). At acid ceramidase (setting [2]), this compound showed a half-maximal inhibitory concentration (IC50) of less than 0.2 µM.
Compound `CCOc1nc2cc(N3CCOCC3)ccc2n1C(=O)NCCCc1ccccc1` [Example 189a, 2-Ethoxy-5-morpholino-N-(3-phenylpropyl)-1H-benzo[d]imidazole-1-carboxamide] gave a solubility in series [1] of 0.002 mg/mL (≈ 4.9 µM). The compound further gave an IC50 against acid ceramidase (pH 4.5) of less than 0.2 µM.
In series [1], `CCCCNC(=O)n1c(OC)nc2ccc(-c3cncnc3)nc21` [Example 85a, N-Butyl-2-methoxy-5-(pyrimidin-5-yl)-3H-imidazo[4,5-b]pyridine-3-carboxamide] registered a solubility of 0.04 mg/mL (≈ 123 µM). Besides, the half-inhibitory concentration (IC50) against acid ceramidase (setting [2]) is less than 0.2 µM.
On to `COc1cccc2c1ncn2C(=O)NCCC(C)C` [Example 98, N-iso-Pentyl-4-methoxy-1H-benzo[d]imidazole-1-carboxamide], for which the solubility in series [1] came out at 0.016 mg/mL (≈ 61.2 µM). In addition, the 50% inhibitory concentration (IC50) against acid ceramidase (setting [2]) was less than 0.2 µM.
In the case of `CN1CC(N2CCN(c3cccc4c3ncn4C(=O)NCCC#Cc3ccccc3)CC2)C1` [Example 361], the solubility in series [1] turned out to be 0.024 mg/mL (≈ 54.2 µM). The compound further had an IC50 against acid ceramidase (setting [2]) of less than 0.2 µM.
Take `O=C(NCCc1ccccc1)n1cnc2cnccc21` [Example 20, N-Phenethyl-1H-imidazo[4,5-c]pyridine-1-carboxamide]: the solubility in series [1] came to 0.0053 mg/mL (≈ 19.9 µM). In addition, at acid ceramidase (setting [2]), the half-maximal inhibitory concentration (IC50) is less than 0.2 µM.
`CC(C)CNC(=O)n1cnc2cc(-c3cncnc3)ccc21` [Example 16a, N-iso-Butyl-5-(pyrimidin-5-yl)-1H-benzo[d]imidazole-1-carboxamide] yielded a solubility in series [1] of 0.0042 mg/mL (≈ 14.2 µM). This compound also gave an IC50 against acid ceramidase (setting [2]) of less than 0.2 µM.
`CCOc1nc2ncccc2n1C(=O)NCCC(C)C` [Example 114, 2-Ethoxy-N-iso-pentyl-1H-imidazo[4,5-b]pyridine-1-carboxamide]: the solubility in series [1] was found to be 0.0168 mg/mL (≈ 60.8 µM). The half-inhibitory concentration (IC50) on acid ceramidase (setting [2]) lay within 0.2 to 1 µM.
In series [1], `CC(C)CCNC(=O)n1cnc2c(N3CCO[C@H](C(C)C)C3)cccc21` [Example 172b, (R)—N-iso-pentyl-4-(2-iso-propylmorpholino)-1H-benzo[d]imidazole-1-carboxamide] yielded a solubility of 0.004 mg/mL (≈ 11.2 µM). For the same compound, the half-inhibitory concentration (IC50) on acid ceramidase (pH 4.5) is 0.2 to 1 µM.
On to `CCN1CCN(c2cccc3c2ncn3C(=O)NCCC(C)C)CC1` [Example 208], for which the solubility in series [1] was 0.031 mg/mL (≈ 90.3 µM). Moreover, the IC50 at acid ceramidase (pH 4.5) was in the range of 0.2 to 1 µM.
In series [1], `O=C(NCCCCc1ccccc1)n1cnc2ccccc21` [Example 6, N-(4-Phenylbutyl)-1H-benzo[d]imidazole-1-carboxamide] showed a solubility of 0.001 mg/mL (≈ 3.41 µM). Besides, the IC50 against acid ceramidase (setting [2]) is less than 0.2 µM.
In turn, `COc1nc2ccc(N3CCN(C(C)=O)CC3)cc2n1C(=O)NCCCc1ccccc1` [Example 236b, 6-(4-acetylpiperazin-1-yl)-2-methoxy-N-(3-phenylpropyl)-1H-benzo[d]imidazole-1-carboxamide] came in with a solubility in series [1] of 0.023 mg/mL (≈ 52.8 µM). The compound further displayed a half-maximal inhibitory concentration (IC50) against acid ceramidase (pH 4.5) of less than 0.2 µM.
`O=C(NCCOCc1ccccc1)n1cnc2ccccc21` [Example 42, N-(2-(Benzyloxy)ethyl)-1H-benzo[d]imidazole-1-carboxamide] had a solubility in series [1] of 0.0177 mg/mL (≈ 59.9 µM). The IC50 against acid ceramidase (setting [2]) is less than 0.2 µM.
In series [1], `CN1CCCN(c2cccc3c2ncn3C(=O)NCCCc2ccccc2)CC1` [Example 269, 4-(4-Methyl-1,4-diazepan-1-yl)-N-(3-phenylpropyl)-1H-benzo[a]imidazole-1-carboxamide] gave a solubility of 0.021 mg/mL (≈ 53.6 µM). Besides, the half-inhibitory concentration (IC50) against acid ceramidase (pH 4.5) is less than 0.2 µM.
In series [1], `O=C(NCCc1ccccc1)n1cnc2cc(-c3cncnc3)ccc21` [Example 8a, N-Phenethyl-5-(pyrimidin-5-yl)-1H-benzo[d]imidazole-1-carboxamide] had a solubility of 0.0037 mg/mL (≈ 10.8 µM). At acid ceramidase (setting [2]), this compound registered an IC50 of less than 0.2 µM.
`COc1nc2ccc(N3CCOCC3)cc2n1C(=O)NCCCc1ccc(F)cc1F` [Example 224a, N-(3-(2,4-Difluorophenyl)propyl)-2-methoxy-6-morpholino-1H-benzo[d]imidazole-1-carboxamide] yielded a solubility in series [1] of 0.004 mg/mL (≈ 9.29 µM). The same compound returned an IC50 on acid ceramidase (pH 4.5) of less than 0.2 µM.
For the compound `COc1nc2ccc(-c3cncnc3)cc2n1C(=O)NCC(C)C` [Example 81a, N-iso-Butyl-2-methoxy-6-(pyrimidin-5-yl)-1H-benzo[d]imidazole-1-carboxamide], the solubility in series [1] worked out at 0.0228 mg/mL (≈ 70.1 µM). Further, the 50% inhibitory concentration (IC50) against acid ceramidase (setting [2]) lay within 0.2 to 1 µM.
For `COc1nc2c(C#N)cccc2n1C(=O)NCC1CCC(F)(F)CC1` [Example 139, 4-Cyano-N-((4,4-difluorocyclohexyl)methyl)-2-methoxy-1H-benzo[d]imidazole-1-carboxamide], in series [1], the solubility turned out to be 0.009 mg/mL (≈ 25.8 µM). This compound also returned an IC50 at acid ceramidase (setting [2]) of less than 0.2 µM.
Consider `CC(C)CCNC(=O)n1cnc2c(N3CC(N4CCN(C)CC4)C3)cccc21` [Example 205, N-iso-Pentyl-4-(3-(4-methylpiperazin-1-yl)-azetidine-1-yl)-1H-benzo[d]imidazole-1-carboxamide], for which, in series [1], the solubility was found to be 0.031 mg/mL (≈ 80.6 µM). For the same compound, the half-maximal inhibitory concentration (IC50) on acid ceramidase (pH 4.5) lay within 0.2 to 1 µM.
Consider `O=C(NCCc1ccccc1)n1cnc2cc(-c3ncccn3)ccc21` [Example 9, N-Phenethyl-5-(pyrimidin-2-yl)-1H-benzo[d]imidazole-1-carboxamide], for which the concentration in solution in series [1] (solubility) came to 0.0054 mg/mL (≈ 15.7 µM). For the same compound, the IC50 at acid ceramidase (setting [2]) was less than 0.2 µM.
With `CN1[C@@H]2CC[C@H]1CN(c1cccc3c1ncn3C(=O)NCCCc1ccccc1)C2` [Example 240, 4-((1R,5S)-8-Methyl-3,8-diazabicyclo[3.2.1]octan-3-yl)-N-(3-phenylpropyl)-1H-benzo[d]imidazole-1-carboxamide], the solubility in series [1] turned out to be 0.028 mg/mL (≈ 69.4 µM). This compound also yielded an IC50 at acid ceramidase (pH 4.5) of 0.2 to 1 µM.
In turn, `CN1CCC2(CC1)CN(c1cccc3c1ncn3C(=O)NCCOc1ccccc1)C2` [Example 350, 4-(7-Methyl-2,7-diazaspiro[3.5]nonan-2-yl)-N-(2-phenoxyethyl)-1H-benzo[d]imidazole-1-carboxamide] registered a solubility in series [1] of 0.035 mg/mL (≈ 83.4 µM). The compound also yielded an IC50 against acid ceramidase (setting [2]) of less than 0.2 µM.
The corresponding values for `CCCCNC(=O)n1c(OC(C)C)nc2c(OC)cccc21` [Example 97a] are 0.018 mg/mL (≈ 58.9 µM) and 0.2 to 1 µM.
With `CC(C)CCNC(=O)n1cnc2c(N3CCN(C)CC3=O)cccc21` [Example 162, N-iso-Pentyl-4-(4-methyl-2-oxopiperazin-1-yl)-1H-benzo[d]imidazole-1-carboxamide], the solubility in series [1] was determined as 0.018 mg/mL (≈ 52.4 µM). The IC50 against acid ceramidase (pH 4.5) is greater than 1 µM.
`O=C(NCCc1ccccc1)n1cnc2nc(C(F)(F)F)ccc21` [Example 66b, N-phenethyl-5-(trifluoromethyl)-1H-imidazo[4,5-b]pyridine-1-carboxamide] registered a solubility in series [1] of 0.0129 mg/mL (≈ 38.6 µM). Moreover, on acid ceramidase (setting [2]), the IC50 was less than 0.2 µM.
The corresponding values for `CN1CCC(c2cc(C(F)(F)F)cc3c2ncn3C(=O)NCCc2ccccc2)CC1` [Example 54, 4-(1-Methylpiperidin-4-yl)-N-phenethyl-6-(trifluoromethyl)-1H-benzo[d]imidazole-1-carboxamide] are 0.0227 mg/mL (≈ 52.7 µM) and less than 0.2 µM.
`CN(C)CC1CN(c2cccc3c2ncn3C(=O)NCCCc2ccccc2)C1` [Example 272, 4-(3-((Dimethylamino)methyl)azetidin-1-yl)-N-(3-phenylpropyl)-1H-benzo[d]imidazole-1-carboxamide]: the solubility in series [1] worked out at 0.021 mg/mL (≈ 53.6 µM). Further, on acid ceramidase (pH 4.5), the IC50 was less than 0.2 µM.
Take `CN1CCN(CCOc2nc3ccccc3n2C(=O)NCC#Cc2ccccc2)CC1` [Example 348, 2-(2-(4-Methylpiperazin-1-yl)ethoxy)-N-(3-phenylprop-2-yn-1-yl)-1H-benzo[d]imidazole-1-carboxamide]: in series [1], the concentration in solution (solubility) was 0.008 mg/mL (≈ 19.2 µM). The 50% inhibitory concentration (IC50) at acid ceramidase (setting [2]) was less than 0.2 µM.
